Data published in patent US20100197752A1, “UROCANIC ACID DERIVATIVES USEFUL FOR THE TREATMENT OF IMMUNE-RELATED AND INFLAMMATORY DISEASES” (priority 2007, published 2010).

What was measured:
BALB/c mice = assay: Suppression of prolonged contact hypersensitivity (P-CHS), oxazolone-induced ear swelling; type: in vivo; conditions: for sequence from high to low effectiveness, suppressive effect on P-CHS response (ear swelling): BALB/c mice, oxazolone, topical twice daily, averaged from 2-3 experiments, compared to placebo (100% ear swelling), FIG. 3; for immunosuppressive, e.g. anti-inflammatory properties (efficacy): conclusion from P-CHS in BALB/c mice, topical application
Experimental: Suppression of prolonged contact hypersensitivity (P-CHS) by ethyl imidazole-4-acetate in BALB/c mice.
Ethyl imidazole-4-acetate was dissolved in ethanol/water 1:1 in a concentration of 5%. The topical application of ethanol/water 1:1 alone served as full-response control. Ethanol/water test solutions were topically applied with a pipette in aliquots of 20 μL/ear.
Mice were sensitized with 10 μl 1% oxazolone in acetone on […] in all experiments on the outside of both ears. On day 0 mice were challenged with 10 μl 0.5% oxazolone in acetone on both ears. Repeated elicitations were applied on day 2, 4, 7, 9. Applied oxazolone concentrations in acetone were 0.5%, 0.25%, 0.25%, 0.25%, respectively. From day 1 up to one day before the final day of the experiment, twice-daily doses of test solutions were topically given at approximately 11 AM and […]. Duplicate ear thickness measurements were made on day 0, 1, 3, 5, 8, 10 and 11 prior to any daily topical application.
The use of mice was allowed by the Committee of Experimental Animal handling of the Academic Medical Center Amsterdam. Female BALB/c mice (8-10 weeks of age) were purchased from Charles River (L′Arbresle, France) and kept in light, humidity and temperature-controlled rooms in the animal facility, 1-2 weeks before the experiment. They were fed ad libitum with water and CRM-E food van Special Diets services (SDS, Witham, Essex, UK).
Data points, obtained with test compound administration, were compared to the data, obtained with vehicle (ethanol/water 1:1) administration and were statistically processed using Welch's unpaired t-test.

[1] = tested on: IL-10 production in whole blood; assay: Effect of imidazole-derivates on the production of IL-10 in whole blood following LPS stimulation; type: cell-based; conditions: LPS stimulation (10 ng/ml), FIG. 4; for IL-10 production: 10−^4 Mol/l in whole blood
Excerpt: Effect of imidazole-derivates on the production of IL-10
IL-10 is a cytokine that dims inflammatory immune responses. […] These findings in vitro have larger significance in a complete test system as whole blood, employed here, than in a monoculture test system (FIG. 4).
FIG. 4. Effect of imidazole-derivates on the production of IL-10 in whole blood

mice = conditions: Kammeyer et al. 2004, Norval et al. 1995, Noonan and De Fabo 1992; cited from earlier work

Row | Structure (SMILES) | sequence from high to low effectiveness, suppressive effect on P-CHS response (ear swelling) (BALB/c mice) | immunosuppressive, e.g. anti-inflammatory properties (efficacy) (BALB/c mice) | IL-10 production [1] | IL-10 production, positive control compared with the imidazole-derivates ([1]; whole blood) | contact hypersensitivity (CHS) response (mice)
1 | CCOC(=O)Cc1c[nH]cn1 [Et-ImAc, ethyl imidazole-4-acetate] | prednisolone>ethyl imidazole-4-acetate (Et-ImAc)>imidazole-4-acetic acid (ImAc) | stronger than that of ImAc | upregulation of IL-10 |  | 
2 | NCCc1c[nH]cn1 [Histamine] |  |  |  | stronger effect on IL-10 production than the imidazole-derivates | 
3 | O=C(O)Cc1c[nH]cn1 [ImAc, Imidazole-4-acetic acid] | ethyl imidazole-4-acetate (Et-ImAc)>imidazole-4-acetic acid (ImAc)=imidazole-4-carboxylic acid | weak to moderate immunosuppressant | upregulation of IL-10 |  | suppress the contact hypersensitivity (CHS) response in mice
4 | O=C(O)c1c[nH]cn1 [ImCOOH, imidazole-4-carboxylic acid] |  |  | upregulation of IL-10 |  | 
5 | O=C([O-])c1c[nH]cn1.[Na+] [imidazole-4-carboxylic acid, imidazole-4-carboxylic acid, sodium salt] | imidazole-4-acetic acid (ImAc)=imidazole-4-carboxylic acid |  |  |  | 
6 | C[C@]12C=CC(=O)C=C1CC[C@@H]1[C@@H]2[C@@H](O)C[C@@]2(C)[C@H]1CC[C@]2(O)C(=O)CO [prednisolone] | prednisolone>ethyl imidazole-4-acetate (Et-ImAc) | classical strong suppressant |  |  | 
